# Source: patent publication US20240415878A1, “Compositions and Methods for Modulating Mitochondrial Function” (Board of Regents, The University of Texas System, priority 2021, published 2024)
# What was measured:
# human MRS2 = molecular target: T1, human MRS2 (Homo sapiens, UniProt Q9HD23); experiment: Dynamic light scattering of purified full-length MRS2 assembly; type: binding; details: 0.5 mM
# T1 construct: 6xHis (N, cleaved yes); made in house; host or cells: BL21 (DE3) codon+ Escherichia coli, pET-28a
# T1 sequence (Q9HD23 58-443): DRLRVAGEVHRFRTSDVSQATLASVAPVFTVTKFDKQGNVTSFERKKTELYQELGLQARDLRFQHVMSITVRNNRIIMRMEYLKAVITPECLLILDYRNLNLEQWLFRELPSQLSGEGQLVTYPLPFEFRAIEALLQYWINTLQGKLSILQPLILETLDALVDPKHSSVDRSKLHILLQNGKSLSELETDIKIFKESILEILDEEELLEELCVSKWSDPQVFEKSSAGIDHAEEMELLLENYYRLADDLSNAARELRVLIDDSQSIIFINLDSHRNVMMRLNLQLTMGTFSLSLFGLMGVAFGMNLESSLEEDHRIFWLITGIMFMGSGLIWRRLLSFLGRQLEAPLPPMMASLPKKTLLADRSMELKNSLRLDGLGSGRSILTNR
# Procedure: Next, CPACC was assessed to determine if it directly affects the assembly of purified human MRS2 using dynamic light scattering (DLS). DLS has been used to determine whether the complex stability of proteins/channels is altered by molecular chaperones or drugs (Kitamura et al., 2006). Because of the high sensitivity of DLS to changes in complex sizes, full-length Mrs2 assembly was evaluated in the presence Ca^2+ (5 mM), Mg^2+ (5 mM), Co^2+ (5 mM) or the Mrs2 blocker CPACC (0.5 mM) (FIG. 10K, FIG. 10L, FIG. 10M, FIG. 10N, FIG. 10O). […] A concentration-response assessment confirmed robust decreases in hydrodynamic radii at all CPACC concentrations tested and as low as 10 μM (FIG. 10O).
# MRS2 cloning, expression, and purification. The full length human MRS2 (NCBI accession NP_065713.1), identified as MRS258-443 (i.e. residues 58-443) and excluding the mitochondrial targeting sequence, was cloned into pET-28a using Ndel and Xhol restriction sites. […]
# Dynamic light scattering (DIS). […] The sample was equilibrated for 5 min at 20° C. before 10 autocorrelation function acquisitions of 5 s each were recorded and averaged. […] The dependence of hydrodynamic size on CPACC concentration was determined using ≈0.5 mg/mL protein supplemented with 0.01 mM, 0.05 mM, 0.1 mM, 0.5 mM or 0.75 mM CPACC, using a similar experimental setup as described above and cumulants analysis.
# WT hepatocytes = experiment: Mitochondrial oxygen consumption rate and extracellular acidification rate (Seahorse); type: cell-based, murine
# Procedure: CPACC treatment enhances adipose browning and lowers whole body weight. Given the potent mMg^2+ uptake inhibiting properties and low toxicity of CPACC, we hypothesized that CPACC could mimic Mrs2^−/− cellular phenotype. WT hepatocytes isolated from over 12 months old mice were treated with 50 μM CPACC for 48 hours. Control and CPACC treated hepatocytes were stained with BODIPY and TMRE for intracellular tracing using confocal imaging. […] Next it was determined if CPACC treatment affects the mitochondrial oxygen consumption rate. Freshly isolated WT hepatocytes were treated with 5-25 μM concentrations of CPACC for 16 hours before measurement of oxygen consumption rate. […] Since it was observed an enhancement of basal OCR in CPACC treated hepatocytes, the extracellular acidification rate was measured in control and CPACC treated hepatocytes and found it to be higher in the CPACC condition indicating higher glycolytic activity (FIG. 11G). […]
# Mitochondrial oxygen consumption rate. […] Oxygen consumption rate (OCR) was measured at 37° C. in an XF96 extracellular flux analyzer (Seahorse Bioscience, Agilent) calibrated using Seahorse XF Calibrant solution (Seahorse Bioscience, Agilent) in a CO2-free incubator overnight. […] Data was collected using Agilent Seahorse Wave 2.6.1 Desktop software and analyzed using GraphPad Prism version 8 (Irrinki et al., 2011; Tomar et al., 2016).
structure (smiles),measurement,setting,value
"[NH2][Co]([NH2])([NH2])([NH2])([NH2])[Cl] [CPACC, chloropentaammine cobalt (III) chloride]",full-length MRS2 complex sizes (DLS),human MRS2,potently decreased
same,maximal OCR,"WT hepatocytes; 5-25 μM, 16 hours",without a significant effect
same,extracellular acidification rate,WT hepatocytes; treated versus control hepatocytes,higher
